Laboratory results reported in patent US11524966B1 (Valo Early Discovery, Inc., priority 2017, dated 2022).

What follows are compounds tested against T1, USP28 (His-tagged USP28-FL-mammalian) (Homo sapiens, UniProt Q96RU2) (assay: Ubiquitin-Rhodamine 110 Assay for USP28 Activity, Example A-1(a)). Conditions: Ubiquitin-Rhodamine 110 assay, Example A-1(a); read-out: USP28 A-1(a) IC50 range.
T1 construct: Expression of USP28 (1-1077)-TEV-6*His (pTT5 vector); made in house; host or cells: Expi293f cells (pTT5 vector)
T1 sequence (Q96RU2 1-1077): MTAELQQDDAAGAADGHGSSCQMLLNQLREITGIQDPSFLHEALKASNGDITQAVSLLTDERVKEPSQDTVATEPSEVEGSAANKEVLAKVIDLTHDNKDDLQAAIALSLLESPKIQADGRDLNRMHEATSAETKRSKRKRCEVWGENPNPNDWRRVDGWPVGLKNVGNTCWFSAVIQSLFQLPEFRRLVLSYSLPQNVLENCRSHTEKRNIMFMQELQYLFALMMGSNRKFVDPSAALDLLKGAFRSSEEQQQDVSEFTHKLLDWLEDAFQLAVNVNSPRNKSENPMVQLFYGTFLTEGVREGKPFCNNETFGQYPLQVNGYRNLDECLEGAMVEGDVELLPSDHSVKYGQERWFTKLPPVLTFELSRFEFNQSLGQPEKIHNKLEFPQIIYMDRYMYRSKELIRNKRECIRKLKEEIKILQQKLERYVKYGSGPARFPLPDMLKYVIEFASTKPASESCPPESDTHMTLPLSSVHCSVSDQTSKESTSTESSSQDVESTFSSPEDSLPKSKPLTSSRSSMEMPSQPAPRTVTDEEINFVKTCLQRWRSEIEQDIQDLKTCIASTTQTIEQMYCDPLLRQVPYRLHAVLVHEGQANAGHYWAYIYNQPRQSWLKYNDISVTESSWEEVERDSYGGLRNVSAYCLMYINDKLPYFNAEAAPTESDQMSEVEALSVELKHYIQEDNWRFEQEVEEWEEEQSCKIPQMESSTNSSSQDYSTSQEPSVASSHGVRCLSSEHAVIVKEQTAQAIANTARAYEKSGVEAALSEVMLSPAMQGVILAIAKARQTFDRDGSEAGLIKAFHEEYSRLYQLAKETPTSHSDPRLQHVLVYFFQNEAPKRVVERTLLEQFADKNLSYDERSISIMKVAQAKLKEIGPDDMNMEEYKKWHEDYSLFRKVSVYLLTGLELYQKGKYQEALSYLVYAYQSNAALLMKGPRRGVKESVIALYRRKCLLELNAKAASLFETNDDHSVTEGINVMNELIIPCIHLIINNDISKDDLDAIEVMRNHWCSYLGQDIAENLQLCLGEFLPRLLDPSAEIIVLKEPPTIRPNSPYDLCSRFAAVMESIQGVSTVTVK
Format: biochemical
Outline: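 Full-length His-tagged human USP28 (1-1077, Expi293f-expressed), […], with 25 nM Ub-Rh110 (<<Km) in pH 8.0 Tris buffer with BME, BGG, Triton X-100. 10-point dilutions (25 μM-1.3 nM), 45 min at room temperature, citric acid stop, fluorescence 485/535 nm; IC50 by 4-parameter fit.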
Compound Cc1ccc2c(N)c(C(=O)N[C@H]3COc4cc(N5C[C@@H](N)[C@@H](F)C5)ccc4C3)sc2n1 (single isomer, unassigned) [Example 3-5] has an IC50 of 1 to 50 nM. Cc1ccc2c(N)c(C(=O)N[C@H]3COc4cc(N5C[C@@H](F)[C@@H](N)C5)ccc4C3)sc2n1 (single isomer, unassigned) [Example 3-6] showed an IC50 of 1 to 50 nM. For COC[C@@H]1CN(c2nc3c(cc2F)C[C@H](NC(=O)c2sc4nc(C)ccc4c2N)CC3)C[C@@H]1N (single isomer, unassigned) [Example 302], the IC50 was 50 to 200 nM. Work on COC[C@H]1CN(c2nc3c(cc2F)C[C@H](NC(=O)c2sc4nc(C)ccc4c2N)CC3)C[C@H]1N (single isomer, unassigned) [Example 303] yielded an IC50 of 200 to 2000 nM. With CO[C@H]1CCN(c2ccc3c(n2)CC[C@H](NC(=O)c2sc4nc(C)ccc4c2N)C3)C[C@@H]1N (single isomer, unassigned) [Example 315] the IC50 was 50 to 200 nM. CO[C@@H]1CCN(c2ccc3c(n2)CC[C@H](NC(=O)c2sc4nc(C)ccc4c2N)C3)C[C@H]1N (single isomer, unassigned) [Example 316] gave an IC50 of 50 to 200 nM. CCOC1CN(c2ccc3c(c2)OC[C@H](NC(=O)c2sc4nc(C)cc(C)c4c2N)C3)C[C@@H]1N (stereo in doubt) [Example 323, 3-amino-N-[(3R)-7-[(3S,4R)-3-amino-4-ethoxypyrrolidin-1-yl]-3,4-dihydro-2H-1-benzopyran-3-yl]-4,6-dimethylthieno[2,3-b]pyridine-2-carboxamide] was tested, and the IC50 was 1 to 50 nM. COC[C@@]1(C)CN(c2ccc3c(n2)CC[C@H](NC(=O)c2sc4nc(C)ccc4c2N)C3)CC1N (stereo in doubt) [Example 343, 3-amino-N-[(6S)-2-[(3S,4S)-4-amino-3-(methoxymethyl)-3-methylpyrrolidin-1-yl]-5,6,7,8-tetrahydroquinolin-6-yl]-6-methylthieno[2,3-b]pyridine-2-carboxamide] showed an IC50 of 50 to 200 nM. For COC[C@H]1C[C@H](N)CN1c1ccc2c(c1)OC[C@H](NC(=O)c1sc3nc(C)ccc3c1N)C2 [Example 261, 3-amino-N-[(3R)-7-[(2R,4S)-4-amino-2-(methoxymethyl)pyrrolidin-1-yl]-3,4-dihydro-2H-1-benzopyran-3-yl]-6-methylthieno[2,3-b]pyridine-2-carboxamide], the IC50 was 1 to 50 nM. Compound COC[C@H]1C[C@@H](N)CN1c1ccc2c(c1)OC[C@H](NC(=O)c1sc3nc(C)ccc3c1N)C2 [Example 262, 3-amino-N-[(3R)-7-[(2R,4R)-4-amino-2-(methoxymethyl)pyrrolidin-1-yl]-3,4-dihydro-2H-1-benzopyran-3-yl]-6-methylthieno[2,3-b]pyridine-2-carboxamide] has an IC50 of 1 to 50 nM. For COC[C@@H]1C[C@H](N)CN1c1ccc2c(c1)OC[C@H](NC(=O)c1sc3nc(C)ccc3c1N)C2 [Example 263, 3-amino-N-[(3R)-7-[(2S,4S)-4-amino-2-(methoxymethyl)pyrrolidin-1-yl]-3,4-dihydro-2H-1-benzopyran-3-yl]-6-methylthieno[2,3-b]pyridine-2-carboxamide], the IC50 was 1 to 50 nM. Compound N#Cc1c(N2CC3CCC(C2)N3)cc2c(c1F)C[C@@H](NC(=O)c1cnc3c(c1)[C@@H]1C[C@@H]1CN3)CO2 [Example 264, (6aS,7aR)-N-[(3R)-6-cyano-7-{3,8-diazabicyclo[3.2.1]octan-3-yl}-5-fluoro-3,4-dihydro-2H-1-benzopyran-3-yl]-5H,6H,6aH,7H,7aH-cyclopropa[c]1,8-naphthyridine-2-carboxamide] has an IC50 of 1 to 50 nM. With N#Cc1c(N2CC3CCC(C2)N3)cc2c(c1F)C[C@@H](NC(=O)c1cnc3c(c1)[C@H]1C[C@H]1CN3)CO2 [Example 265, (6aR,7aS)-N-[(3R)-6-cyano-7-{3,8-diazabicyclo[3.2.1]octan-3-yl}-5-fluoro-3,4-dihydro-2H-1-benzopyran-3-yl]-5H,6H,6aH,7H,7aH-cyclopropa[c]1,8-naphthyridine-2-carboxamide] the IC50 was 50 to 200 nM. CO[C@H]1CN(c2ccc3c(n2)CC[C@H](NC(=O)c2sc4nc(C)cnc4c2N)C3)C[C@@H]1NC(C)=O [Example 266, 7-amino-N-[(6S)-2-[(3S,4S)-3-acetamido-4-methoxypyrrolidin-1-yl]-5,6,7,8-tetrahydroquinolin-6-yl]-3-methylthieno[2,3-b]pyrazine-6-carboxamide] showed an IC50 of 200 to 2000 nM. CCO[C@@H]1CN(c2ccc3c(c2)CC[C@H](NC(=O)c2sc4nc(C)ccc4c2N)C3)C[C@@H]1N [Example 267, 3-amino-N-[(2S)-6-[(3S,4R)-3-amino-4-ethoxypyrrolidin-1-yl]-1,2,3,4-tetrahydronaphthalen-2-yl]-6-methylthieno[2,3-b]pyridine-2-carboxamide] gave an IC50 of 50 to 200 nM. CCO[C@H]1CN(c2ccc3c(c2)CC[C@H](NC(=O)c2sc4nc(C)ccc4c2N)C3)C[C@H]1N [Example 268, 3-amino-N-[(2S)-6-[(3R,4S)-3-amino-4-ethoxypyrrolidin-1-yl]-1,2,3,4-tetrahydronaphthalen-2-yl]-6-methylthieno[2,3-b]pyridine-2-carboxamide] gave an IC50 of 50 to 200 nM. CO[C@@H]1CN(c2ccc3c(n2)CC[C@H](NC(=O)c2sc4nc(C)ccc4c2N)C3)C[C@@H]1N [Example 269, 3-amino-N-[(6S)-2-[(3S,4R)-3-amino-4-methoxypyrrolidin-1-yl]-5,6,7,8-tetrahydroquinolin-6-yl]-6-methylthieno[2,3-b]pyridine-2-carboxamide] gave an IC50 of 50 to 200 nM. For CO[C@H]1CN(c2ccc3c(n2)CC[C@H](NC(=O)c2sc4nc(C)ccc4c2N)C3)C[C@H]1N [Example 270, 3-amino-N-[(6S)-2-[(3R,4S)-3-amino-4-methoxypyrrolidin-1-yl]-5,6,7,8-tetrahydroquinolin-6-yl]-6-methylthieno[2,3-b]pyridine-2-carboxamide], the IC50 was 50 to 200 nM. COC[C@@H]1CN(c2ccc3c(c2)OC[C@H](NC(=O)c2sc4nc(C)cc(C)c4c2N)C3)C[C@@H]1N [Example 275, 3-amino-N-[(3R)-7-[(3R,4R)-3-amino-4-(methoxymethyl)pyrrolidin-1-yl]-3,4-dihydro-2H-1-benzopyran-3-yl]-4,6-dimethylthieno[2,3-b]pyridine-2-carboxamide] gave an IC50 of 1 to 50 nM. In the case of COC[C@H]1CN(c2ccc3c(c2)OC[C@H](NC(=O)c2sc4nc(C)cc(C)c4c2N)C3)C[C@H]1N [Example 276, 3-amino-N-[(3R)-7-[(3S,4S)-3-amino-4-(methoxymethyl)pyrrolidin-1-yl]-3,4-dihydro-2H-1-benzopyran-3-yl]-4,6-dimethylthieno[2,3-b]pyridine-2-carboxamide], the IC50 is reported as 1 to 50 nM. Compound COC[C@@H]1CN(c2cc(F)c3c(c2F)OC[C@H](NC(=O)c2sc4nc(C)cc(C)c4c2N)C3)C[C@@H]1N [Example 277, 3-amino-N-[(3R)-7-[(3R,4R)-3-amino-4-(methoxymethyl)pyrrolidin-1-yl]-5,8-difluoro-3,4-dihydro-2H-1-benzopyran-3-yl]-4,6-dimethylthieno[2,3-b]pyridine-2-carboxamide] has an IC50 of 1 to 50 nM. COC[C@H]1CN(c2cc(F)c3c(c2F)OC[C@H](NC(=O)c2sc4nc(C)cc(C)c4c2N)C3)C[C@H]1N [Example 278, 3-amino-N-[(3R)-7-[(3S,4S)-3-amino-4-(methoxymethyl)pyrrolidin-1-yl]-5,8-difluoro-3,4-dihydro-2H-1-benzopyran-3-yl]-4,6-dimethylthieno[2,3-b]pyridine-2-carboxamide] was tested, and the IC50 was 1 to 50 nM. In the case of CO[C@@]1(C)CN(c2ccc3c(n2)CC[C@H](NC(=O)c2sc4nc(C)cnc4c2N)C3)C[C@@H]1N [Example 279, 7-amino-N-[(6S)-2-[(3S,4S)-4-amino-3-methoxy-3-methylpyrrolidin-1-yl]-5,6,7,8-tetrahydroquinolin-6-yl]-3-methylthieno[2,3-b]pyrazine-6-carboxamide], the IC50 is reported as 200 to 2000 nM. Work on CO[C@]1(C)CN(c2ccc3c(n2)CC[C@H](NC(=O)c2sc4nc(C)cnc4c2N)C3)C[C@H]1N [Example 280, 7-amino-N-[(6S)-2-[(3R,4R)-4-amino-3-methoxy-3-methylpyrrolidin-1-yl]-5,6,7,8-tetrahydroquinolin-6-yl]-3-methylthieno[2,3-b]pyrazine-6-carboxamide] yielded an IC50 of 200 to 2000 nM.
